Measured values from US11951094B2, “TLR2 modulator compounds, pharmaceutical compositions and uses thereof” (Axial Therapeutics, Inc., priority 2020, dated 2024).

Target: TLR2 (Homo sapiens, UniProt O60603)
Experiment: TLR2 agonist screening assay, HEK-Blue TLR2 reporter cell line (NF-kB-driven SEAP, absorbance at 600 nm)
Format: cell-based
Design: host or cells: HEK-293 (HEK-Blue TLR2 reporter cell line)
Conditions: HEK-Blue TLR2 reporter cells, agonist mode
In short: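 Read-out: SEAP colour change, A600, after overnight agonist exposure. Cells: HEK-293 overexpressing TLR2, NF-kB-SEAP reporter, ~40,000/well, plated 16-24 h prior.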

TLR2, sequence (O60603 21-784): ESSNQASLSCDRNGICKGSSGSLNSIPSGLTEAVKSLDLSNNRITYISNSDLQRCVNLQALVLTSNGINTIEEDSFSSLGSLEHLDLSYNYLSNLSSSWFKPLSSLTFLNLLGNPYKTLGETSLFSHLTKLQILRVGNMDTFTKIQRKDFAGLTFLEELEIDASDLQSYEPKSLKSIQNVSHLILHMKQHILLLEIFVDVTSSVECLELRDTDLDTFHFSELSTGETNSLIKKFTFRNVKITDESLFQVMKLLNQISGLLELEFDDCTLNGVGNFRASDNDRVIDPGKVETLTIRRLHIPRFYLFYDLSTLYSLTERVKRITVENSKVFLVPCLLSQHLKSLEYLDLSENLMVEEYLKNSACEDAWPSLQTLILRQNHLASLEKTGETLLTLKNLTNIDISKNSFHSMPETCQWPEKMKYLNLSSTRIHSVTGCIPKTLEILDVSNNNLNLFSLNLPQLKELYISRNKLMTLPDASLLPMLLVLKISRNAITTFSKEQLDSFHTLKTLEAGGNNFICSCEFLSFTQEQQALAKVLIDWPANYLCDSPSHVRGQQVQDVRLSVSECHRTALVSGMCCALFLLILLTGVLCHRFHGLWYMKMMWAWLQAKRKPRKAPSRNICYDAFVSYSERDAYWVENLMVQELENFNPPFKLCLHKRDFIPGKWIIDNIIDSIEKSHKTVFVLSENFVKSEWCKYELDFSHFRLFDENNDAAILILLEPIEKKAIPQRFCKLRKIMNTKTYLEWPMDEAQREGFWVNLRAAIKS

EC50 (average of all runs (Table 3)) [nM]	EC50 (average of all runs (Table 4)) [nM]	Structure (SMILES)
0.1 to 50		CCCCCCNC(=O)[C@@H]1CN(C(=O)c2ccc(C(=O)N3C[C@@H](C(=O)N[C@H]4C[C@@H]4c4ccccc4)[C@H](C(=O)N[C@H]4C[C@@H]4c4ccccc4)C3)cc2)C[C@H]1C(=O)NCCCCCC [Compound 035]
	> 1000	CCCCCCCO[C@H]1CN(C(=O)c2ccc(C(=O)N3C[C@@H](C(=O)N[C@H]4C[C@@H]4c4ccccc4)[C@H](C(=O)N[C@H]4C[C@@H]4c4ccccc4)C3)cc2)C[C@H]1C(=O)NCCCCCC (single isomer, unassigned) [Compound 115, (3S,4S)-1-(4-((3R*,4R*)-3-(heptyloxy)-4-(hexylcarbamoyl)pyrrolidine-1-carbonyl)benzoyl)-N3,N4-bis((1S,2R)-2-phenylcyclopropyl)pyrrolidine-3,4-dicarboxamide]
> 1000		CCCCCCNC(=O)CC[C@H](NC(=O)c1ccc(C(=O)N2C[C@@H](C(=O)N[C@H]3C[C@@H]3c3ccccc3)[C@H](C(=O)N[C@H]3C[C@@H]3c3ccccc3)C2)cc1)C(=O)NCCCCCC [Compound 013]
351 to 1000		CCCCCCCO[C@H]1CN(C(=O)c2ccc(C(=O)N3C[C@@H](C(=O)N[C@H]4C[C@@H]4c4ccccc4)[C@H](C(=O)N[C@H]4C[C@@H]4c4ccccc4)C3)cc2)C[C@H]1C(=O)NCCCCCC (single isomer, unassigned) [Compound 073, (3S,4S)-1-(4-((3R*,4R*)-3-(heptyloxy)-4-(hexylcarbamoyl)pyrrolidine-1-carbonyl)benzoyl)-N3,N4-bis((1S,2R)-2-phenylcyclopropyl)pyrrolidine-3,4-dicarboxamide]
> 1000		CCCCCCCCCCCCCCNC(=O)CC(C)(C)NC(=O)c1ccc(C(=O)N2C[C@@H](C(=O)N[C@H]3C[C@@H]3c3ccccc3)[C@H](C(=O)N[C@H]3C[C@@H]3c3ccccc3)C2)cc1 [Compound 011]
	351 to 1000	CCCCCCCCCCCCCCNC(=O)[C@H]1CN(S(=O)(=O)c2cccc(C(=O)N3C[C@@H](C(=O)N[C@H]4C[C@@H]4c4ccccc4)[C@H](C(=O)N[C@H]4C[C@@H]4c4ccccc4)C3)c2)CCN1C(C)=O [Compound 192, (3S,4S)-1-(3-(((R)-4-acetyl-3-(tetradecylcarbamoyl)piperazin-1-yl)sulfonyl)benzoyl)-N3,N4-bis((1S,2R)-2-phenylcyclopropyl)pyrrolidine-3,4-dicarboxamide]
	0.1 to 50	CCCCCCCCCC(=O)N[C@@H](Cc1nnc(-c2ccc(C(=O)N3C[C@@H](C(=O)N[C@H]4C[C@@H]4c4ccccc4)[C@H](C(=O)N[C@H]4C[C@@H]4c4ccccc4)C3)cc2)s1)C(=O)NCCCCCC [Compound 243, (3S,4S)-1-(4-(5-((S)-2-decanamido-3-(hexylamino)-3-oxopropyl)-1,3,4-thiadiazol-2-yl)benzoyl)-N3,N4-bis((1S,2R)-2-phenylcyclopropyl)pyrrolidine-3,4-dicarboxamide]
	51 to 350	CCCCCCCCCCCCCCC(=O)N[C@H]1CN(C(=O)c2ccc(C(=O)N3C[C@@H](C(=O)N[C@H]4C[C@@H]4c4ccccc4)[C@H](C(=O)N[C@H]4C[C@@H]4c4ccccc4)C3)cc2)C[C@@H]1O [Compound 078, (3S,4S)-1-(4-((3S,4S)-3-hydroxy-4-pentadecanamidopyrrolidine-1-carbonyl)benzoyl)-N3,N4-bis((1S,2R)-2-phenylcyclopropyl)pyrrolidine-3,4-dicarboxamide]
	51 to 350	CCCCCCCCCCCCCCNC(=O)[C@@H]1CN(C(=O)c2ccc(C(=O)N3C[C@@H](C(=O)N[C@H]4C[C@@H]4c4ccccc4)[C@H](C(=O)N[C@H]4C[C@@H]4c4ccccc4)C3)cc2)C[C@H]1O (single isomer, unassigned) [Compound 105, (3S,4S)-1-(4-((3R*,4S*)-3-hydroxy-4-(tetradecylcarbamoyl)pyrrolidine-1-carbonyl)benzoyl)-N3,N4-bis((1S,2R)-2-phenylcyclopropyl)pyrrolidine-3,4-dicarboxamide]
	351 to 1000	CCCCCCCC(=O)N1CCCN(C(=O)c2cccc(C(=O)N3C[C@@H](C(=O)N[C@H]4C[C@@H]4c4ccccc4)[C@H](C(=O)N[C@H]4C[C@@H]4c4ccccc4)C3)c2)C[C@H]1C(=O)NCCCCCC (single isomer, unassigned) [Compound 190]
